Laboratory results from PubChem BioAssay (NCI).
Where “and” joins values, the source holds several entries; their conditions need not be identical. Equal entries are not always repeated.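 1) Cells in 96-well plates. 2) Compound, 48 h, 5 concentrations. 3) Linear interpolation between surrounding doses. 4) Unreached endpoint = highest concentration. At the GI50, growth is halved. Definition used: TGI = concentration required for complete inhibition of growth.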

Columns and labels:
Assay in all cases: growth of human tumour cells (NCI), 48 h
HCT-15 colon = test system: HCT-15 colon
PC-3 prostate = test system: PC-3 prostate
MDA-MB-231 breast = test system: MDA-MB-231 breast
HS 578T breast = test system: HS 578T breast
CAKI-1 renal = test system: CAKI-1 renal
HCT-116 colon = test system: HCT-116 colon
RPMI-8226 leukemia = test system: RPMI-8226 leukemia
CCRF-CEM leukemia = test system: CCRF-CEM leukemia

Structure (SMILES)	GI50 (HCT-15 colon)	TGI (HCT-15 colon) [µM]	GI50 (PC-3 prostate)	TGI (PC-3 prostate)	GI50 (MDA-MB-231 breast) [µM]	TGI (MDA-MB-231 breast) [µM]	GI50 (HS 578T breast)	TGI (HS 578T breast)	GI50 (CAKI-1 renal) [µM]	TGI (CAKI-1 renal) [µM]	GI50 (HCT-116 colon) [µM]	TGI (HCT-116 colon) [µM]	GI50 (RPMI-8226 leukemia)	TGI (RPMI-8226 leukemia)	GI50 (CCRF-CEM leukemia) [µM]	TGI (CCRF-CEM leukemia) [µM]
CN1c2ccccc2C(C)(C)C12CC(c1ccc(Cl)c(S(=O)(=O)N3CCCC3)c1)=NO2 (stereo not given)	0.118 µM	> 100	59 µM	> 100 µM	> 100	> 100	> 100 µM	> 100 µM	–	–	–	–	–	–	–	–
COc1cc2c3c(n(C)c(=O)c2cc1OC)-c1cc2c(cc1/C3=C\[C@@H](N)CCCCN)OCO2	60.3 µM	> 100	2.71 µM	> 53.1 µM	1.54	> 48.5	15.9 µM	81.8 µM	4.26	> 75.1	0.329	14.4	2.57 µM	35.2 µM	0.996	> 100
CN(C)CCCC(=O)Nc1ccc(Cn2nnc3c2C(=O)c2nnn(Cc4ccc(NC(=O)CCCN(C)C)cc4)c2C3=O)cc1	56.8 µM	> 100	4.75 µM	43.4 µM	–	–	2.93 µM	7.68 µM	> 100	> 100	3.03	11.6	3.17 µM	15.9 µM	2.04	6.35
COc1cccc2c(Nc3ccc(C(=O)NCCN(C)C)cc3)cc(-c3ccccc3)nc12	16.4 µM	38.4	13.3 µM	40.5 µM	4.15	19.4	21.4 µM	53.6 µM	27.8	55.3	3.88	18.6	6.11 µM	24.4 µM	8.86	33.2
C=CCNc1cccc2c1C(=O)c1ccccc1C2(O)CC=C (stereo not given)	15.5 µM	57	26.6 µM	73.8 µM	12.3	28.3	18.8 µM	43.5 µM	–	–	17.7	32.3	17.4 µM	44.6 µM	22.6	52
COc1ccc(-c2[nH]ncc2-c2cc(OC)c(OC)c(OC)c2)cc1	< 0.01 µM	> 80.6	< 0.01 µM	32.5 µM	0.0271	–	< 0.01 µM	7.24 µM	< 0.01	25	< 0.01	12.2	0.0132 µM	16 µM	< 0.0163	28.8
COc1ccc2c(c1)C(=O)c1c-2n(CCCCl)c(=O)c2cc(N(C)C)ccc12	> 100 µM	> 100	34.5 µM	> 100 µM	21.8	81	26.8 µM	> 100 µM	94.6	> 100	43.9	> 100	–	–	–	–
CC1(C)CC[C@]2(C(=O)O)CC[C@]3(C)[C@H](CC[C@@H]4[C@@]5(C)CCC(=O)C(C)(C)[C@@H]5CC[C@]43C)[C@H]2[C@H]1OC(=O)C(F)(F)F	4.99 µM	18.1	3.98 µM	17.9 µM	13.5	31.4	20.3 µM	83.5 µM	12.8	25.7	4.8	17.8	4.82 µM	30.9 µM	9.51	41.5
CN1CCN(c2cc(Nc3cc(C4CC4)[nH]n3)nc(Nc3ccc(CC(=O)NCc4cccc(F)c4)cc3)n2)CC1	2.9 µM	14.5	0.616 µM	22.8 µM	0.451	6.16	0.28 µM	2.34 µM	0.823	4.74	0.211	6.87	2 µM	6.52 µM	0.0495	7.49
COC(=O)[C@H](Cc1ccccc1)NC(=O)[C@@H](OC)[C@@H]1Cc2cc3cc(OC4CC(OC5CC(O)C(O)C(C)O5)C(O)C(C)O4)c(C)c(O)c3c(O)c2C(=O)[C@H]1OC1CC(OC2CC(OC3CC(C)(O)C(O)C(C)O3)C(O)C(C)O2)C(O)C(C)O1 (stereo not given in full)	0.0725 µM	> 14.3	0.0215 µM	0.429 µM	0.0305	9.09	0.0131 µM	0.348 µM	0.0416	> 14.3	0.00587	> 14.3	0.0109 µM	0.073 µM	0.0137	> 14.3
OC(C(=Nc1ccccc1)c1ccccc1)c1ccccc1 (stereo not given)	–	> 100	–	–	–	39.3	–	7.11 µM	–	30.3	–	31.8	–	71.1 µM	–	27.9
COP1(=S)OCC2CCC[C@@H]2O1 (stereo not given in full)	–	> 100	–	> 100 µM	–	> 100	–	–	–	> 100	–	> 100	–	> 100 µM	–	> 100
CC(=O)OC1=C2C(CC3C4CC=C5CC(OC(C)=O)CCC5(C)C4CCC23C)C2C(=O)N(Cc3ccccc3)C(=O)C2C1 (stereo not given)	3.09 µM	> 100	4.03 µM	> 100 µM	11.1	72.7	15.7 µM	> 100 µM	4.65	> 100	3.82	17.2	2.78 µM	9.82 µM	3.39	> 100
C=C1CO[C@@H]2C[C@@H]1CCC1(C)OC1CC/C(C)=C/CC[C@@]2(C)O (stereo not given in full)	35.8 µM	> 87	18.5 µM	36.9 µM	14.9	36.1	27.1 µM	> 79.8 µM	20	44	15.7	31.2	16.2 µM	44.5 µM	15.1	38.1
O=[N+]([O-])c1ccc2c(c1)S(=O)c1ccccc1-2 (stereo not given)	–	> 100	–	> 100 µM	–	> 100	–	> 100 µM	–	> 100	–	> 100	–	> 100 µM	–	> 100
CC(C)CC(=O)CC(O)C(Cl)(Cl)Cl (stereo not given)	–	> 100	–	> 100 µM	–	> 100	–	> 100 µM	–	> 100	–	> 100	–	> 100 µM	–	> 100
CCC(C)CC(CC)NCCN1CCN(C(CC)CC(C)CC)C1=S (stereo not given)	1.79 µM	3.4	2.05 µM	6.87 µM	1.84	3.55	–	–	1.8	3.66	1.79	3.27	1.85 µM	4.25 µM	1.86	4.98

Structure (SMILES)	GI50 (HCT-15 colon)	TGI (HCT-15 colon) [µM]	GI50 (PC-3 prostate)	TGI (PC-3 prostate)	GI50 (MDA-MB-231 breast) [µM]	TGI (MDA-MB-231 breast) [µM]	GI50 (HS 578T breast)	TGI (HS 578T breast)	GI50 (CAKI-1 renal) [µM]	TGI (CAKI-1 renal) [µM]	GI50 (HCT-116 colon) [µM]	TGI (HCT-116 colon) [µM]	GI50 (RPMI-8226 leukemia)	TGI (RPMI-8226 leukemia)	GI50 (CCRF-CEM leukemia) [µM]	TGI (CCRF-CEM leukemia) [µM]
O=C(Nc1ccccc1F)c1ccc(NC2=C(Cl)C(=O)N(Cc3ccccc3)C2=O)cc1	3.38 µM	12.3	3.39 µM	12.8 µM	2.8	13.8	2.95 µM	9.4 µM	1.7	3.25	8.4	20.6	1.83 µM	3.92 µM	–	–
COC(=O)[C@]12CC[C@@H](C)[C@H](C)[C@@H]1C1=CC[C@@H]3[C@@]4(C)C=C(O)C(=O)C(C)=C4CC[C@@]3(C)[C@]1(C)CC2	11.9 µM	27.6	4.16 µM	18.4 µM	13	30.2	22.2 µM	57.1 µM	12.4	31.4	6.03	20.6	8.62 µM	32.8 µM	5.26	23.4
CC(C)(C)c1nnc2n(c1=O)N=CC(c1ccc(Br)cc1)S2 (stereo not given)	20.1 µM	48	42.1 µM	> 100 µM	24.5	48.1	35.2 µM	91.1 µM	24.7	62.5	23.9	50.9	25.6 µM	> 100 µM	31.3	> 100
COc1ccc(C(=O)N/N=C/c2ccc(O)cc2O)cc1Nc1ccnc(C(F)(F)F)c1	2.45 µM	> 100	0.771 µM	24.6 µM	1.71	> 84.7	1.01 µM	15.3 µM	0.984	15.2	0.354	8.77	1.16 µM	30.8 µM	0.128	1.44
O=C1C=C(Nc2nc(C(=O)O)cc(=O)[nH]2)c2ccccc2C1=O	–	> 100	–	> 100 µM	–	> 100	–	> 100 µM	–	> 100	–	> 100	–	> 100 µM	–	> 100
C[C@@]12CCC[C@@](C)(C(=O)O)C1CC[C@@]13CC(=O)[C@@](CO)(CCC12)C3 (stereo not given in full)	> 100 µM	> 100	> 100 µM	> 100 µM	> 100	> 100	> 100 µM	> 100 µM	> 100	> 100	> 100	> 100	> 100 µM	> 100 µM	> 100	> 100
CC(C)[C@@H](CS(=O)(=O)C(C)C)N1C(=O)[C@@](C)(CC(=O)O)C[C@H](c2cccc(Cl)c2)[C@H]1c1ccc(Cl)cc1	15.3 µM	> 69.3	5.75 µM	> 69.3 µM	18.3	39.2	17.1 µM	72.1 µM	0.378	32.8	0.454	17.2	15 µM	53 µM	18.2	66.1
Nc1c(O)c(S(=O)(=O)O)c(O)c2c1C(=O)c1ccccc1C2=O	2.64 µM	11.2	2.32 µM	7.87 µM	5.85	28.1	4.69 µM	> 100 µM	2.34	7.26	2.78	10.9	2.53 µM	7.77 µM	3.1	11
CCOC(=O)c1cnc2c(cnn2CC)c1NN=C(C)C	32 µM	> 100	37.5 µM	> 100 µM	45.1	> 100	24.1 µM	87.9 µM	22.9	> 100	47.1	> 100	74.2 µM	> 100 µM	78.3	> 100
COc1cc2c3c(n(CCCNCCN4CCOCC4)c(=O)c2cc1OC)-c1cc2c(cc1C3=O)OCO2	0.453 µM and 2.14 µM	–	1.9 µM and 1.59 µM	9.18 µM and 4.91 µM	2.18	5.72	2.94 µM and 16.9 µM	13.3 µM and 48 µM	2.61	19.4	< 0.005	0.0975	0.122 µM and 0.0199 µM	1.14 µM and 0.681 µM	–	–
CC12CCC(O)CC1CCC1C2CCC2(C)C(C3=CC(=O)OC3)CCC12 (stereo not given)	> 100 µM	> 100	> 67.4 µM	> 100 µM	0.636	8.49	3.48 µM	> 48.5 µM	> 55.7	> 100	25.5	> 100	1.27 µM	> 100 µM	–	–
CCCCC#Cc1cccc(=O)o1	–	–	25.7 µM	> 100 µM	6.43	> 100	> 100 µM	> 100 µM	> 100	> 100	5.34	30.4	2.03 µM	49.9 µM	20.3	> 100
Oc1ccc(SCc2ccc(NCc3ccccc3)cc2)cc1	–	> 100	–	71.9 µM	–	> 100	–	> 100 µM	–	> 100	–	> 100	–	–	–	64.8
COc1ccc(-c2c(C#N)c(N)nc3c2CCCc2ccc(F)cc2-3)cc1OC	< 0.0497 µM	0.504	< 0.0185 µM	–	< 0.0399	0.758	–	–	0.0241	35.1	0.187	11	< 0.01 µM	1.61 µM	< 0.0105	> 92.8
Cc1ccc(-n2c(-c3ccc(Cl)cc3)cs/c2=N\NC(=O)COc2n[nH]c(=O)c3ccccc23)cc1	> 100 µM	> 100	> 100 µM	> 100 µM	68.4	> 100	27.5 µM	> 100 µM	25.7	72.7	–	–	> 100 µM	> 100 µM	> 100	> 100
N#Cc1ccc2oc3ccc(C#N)cc3c(=O)c2c1	–	> 100	–	55 µM	–	> 100	–	–	–	> 100	–	> 100	–	62.4 µM	–	74
